In patent publication US7541367B2, “3-benzoimidazolyl-pyrazolopyridines useful in treating kinase disorders” (Janssen Pharmaceutica, N.V., priority 2005, dated 2009):

Key:
[1] = target: T1, HER2 (Homo sapiens, UniProt P04626); test: HER2 kinase screening assay (33P-ATP FlashPlate); assay type: biochemical; settings: GST-HIS6 HER-2 aa 679 to 1255; 10 μM ATP; 1 hr at 30° C;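 further: Biotin-poly(GT) 4:1 peptide captured on streptavidin FlashPlate, 33P transfer from γ-ATP read by scintillation counting, lower incorporation means inhibition, 1% DMSO final, 100 µL reaction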
T1 construct: GST (Glutathione-S-Transferase) (N); HIS6 (N); thrombin cleavage site (N); purchased Proqinase, Freiburg, Germany

[2] = tested on: HeLa cervical adenocarcinoma; test: Cell Proliferation Inhibition Assay (14C-thymidine incorporation), HeLa; assay type: cell-based; settings: Homo sapiens, HeLa, HeLa cells;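 further: test compound in DMSO added to cells seeded in scintillating 96-well plates, DMSO-only wells as control, uptake of methyl 14C-thymidine into new DNA counted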
[3] = tested on: Human melanoma A375 cells; test: In Vivo Models - Inhibition of Tumor Growth (A375 xenograft); settings: female athymic mice, 25 mg/kg i.p. daily
Experimental: The ability of test compounds to inhibit unregulated growth of human tumor cells in vivo was evaluated by implanting human tumor cells into the hindflank of athymic mice, administering a test compound and then quantifying any change in tumor size.
Certain compounds at particular doses produced adverse effects in this model. One skilled in the art would be able to establish the effective amount of compound required to achieve an effective therapeutic window.
Human melanoma A375 cells were implanted subcutaneously into the hindflank of female athymic mice (Charles River) and allowed to grow for 6-10 days. After a measurable tumor was established (as determined by baseline caliper measurement), the animal was administered an intraperitoneal (i.p.) dose of the test compound daily at 25 mg/kg for the length of the study. Tumor size was measured at certain intervals as shown in Table 5 and the degree of inhibition for a test compound was determined by comparing the reduction in tumor volume for drug-treated animals to that of untreated and vehicle-treated animals. The vehicle used was 20% hydroxypropyl β-cyclodextran.

[4] = target: T2, CDK1 (Homo sapiens, UniProt P06493); test: CDK-1 kinase screening assay (33P-ATP FlashPlate); assay type: biochemical; settings: human CDK1 with cyclin B; 10 μM ATP; 1 hr at 30° C
T2 construct: purchased New England Biolabs, Beverly, Mass; 6020; host or cells: insect cells

[5] = tested on: A375 malignant melanoma; test: Cell Proliferation Inhibition Assay (14C-thymidine incorporation), A375; assay type: cell-based; settings: Homo sapiens, A-375, A375 cells;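 further: proliferation measured by radiolabelled thymidine uptake into new DNA, counted in scintillating 96-well plates, compound-treated wells compared with DMSO-only control wells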
[6] = target: T3, Aurora-A (Mus musculus, UniProt P97477); test: Aurora-A kinase screening assay (33P-ATP FlashPlate); assay type: biochemical; settings: 10 μM ATP, 1 hr at 30° C;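 further: His-tagged mouse Aurora-A phosphorylating a biotinylated peptide captured on streptavidin plates, read as 33P uptake by scintillation counting, 1% DMSO, inhibition scaled between per-plate maximum and minimum signals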
T3 construct: polyhistidine (N)
T3 sequence (P97477 1-395): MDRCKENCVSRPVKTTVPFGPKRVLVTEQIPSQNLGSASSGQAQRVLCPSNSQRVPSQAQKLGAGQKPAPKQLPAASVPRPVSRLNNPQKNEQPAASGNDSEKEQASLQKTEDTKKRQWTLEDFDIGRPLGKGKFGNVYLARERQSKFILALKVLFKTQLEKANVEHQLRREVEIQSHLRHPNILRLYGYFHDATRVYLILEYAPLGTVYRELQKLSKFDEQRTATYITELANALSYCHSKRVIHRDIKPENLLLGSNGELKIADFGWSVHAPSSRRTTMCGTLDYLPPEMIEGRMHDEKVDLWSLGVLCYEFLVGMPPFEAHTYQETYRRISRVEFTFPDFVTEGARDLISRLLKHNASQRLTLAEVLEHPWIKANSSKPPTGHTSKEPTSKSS

[7] = tested on: HCT-116 colon carcinoma; test: Cell Proliferation Inhibition Assay (14C-thymidine incorporation), HCT-116; assay type: cell-based; settings: Homo sapiens, HCT-116, HCT-116 cells;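 further: proliferation measured as methyl 14C-thymidine uptake into new DNA, counted in 96-well scintillating microplates, compared with DMSO-only control wells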
[8] = target: T4, VEGF-R2 (Rattus norvegicus, UniProt O08775); test: VEGF-R2 kinase screening assay (33P-ATP FlashPlate); assay type: biochemical; settings: rat VEGF-R2 kinase domain; 10 μM ATP; 1 hr at 30° C;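 further: Read-out is ³³P incorporation from ³³P-γ-ATP into biotinylated peptide substrate captured on streptavidin FlashPlate, counted by scintillation, 1% DMSO final, inhibition scaled between per-plate maximum and minimum signals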
T4 construct: polyhistidine (N)

[9] = target: T5, c-Src kinase (Homo sapiens, UniProt P12931); test: c-Src Kinase Assay; assay type: biochemical; settings: 5 μM ATP
T5 construct: purchased Upstate Biotechnology, Lake Placid, N.Y
In short: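 Human c-Src phosphorylated Cdc2 peptide (100 μM) […]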

[10] = target: T6, Lyn kinase (Homo sapiens, UniProt P07948); test: Lyn Kinase Assay; assay type: biochemical; settings: 5 μM ATP
T6 construct: purchased Upstate Biotechnology, Lake Placid, N.Y
In short: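 Recombinant human Lyn kinase in pH 7.5 Tris buffer with EGTA, vanadate, β-mercaptoethanol and BSA reacted with compound for 40 min at 30° C. The radiolabelled product was captured on P30 filtermats after phosphoric acid stop and counted by scintillation. IC50 came from percent inhibition versus log concentration, using plate maximum/minimum signals.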

[11] = target: T7, RET (Homo sapiens, UniProt P07949); test: RET kinase screening assay (33P-ATP FlashPlate); assay type: biochemical; settings: human RET kinase domain; 10 μM ATP; 1 hr at 30° C;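 further: biotinylated peptide substrate captured on streptavidin FlashPlate, 33P phosphate transfer read by scintillation counting, 1% DMSO, lower incorporation means inhibition, percent relative to per-plate maximum and minimum signals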
T7 construct: polyhistidine (N)
T7 sequence (P07949 658-1114 limits assumed): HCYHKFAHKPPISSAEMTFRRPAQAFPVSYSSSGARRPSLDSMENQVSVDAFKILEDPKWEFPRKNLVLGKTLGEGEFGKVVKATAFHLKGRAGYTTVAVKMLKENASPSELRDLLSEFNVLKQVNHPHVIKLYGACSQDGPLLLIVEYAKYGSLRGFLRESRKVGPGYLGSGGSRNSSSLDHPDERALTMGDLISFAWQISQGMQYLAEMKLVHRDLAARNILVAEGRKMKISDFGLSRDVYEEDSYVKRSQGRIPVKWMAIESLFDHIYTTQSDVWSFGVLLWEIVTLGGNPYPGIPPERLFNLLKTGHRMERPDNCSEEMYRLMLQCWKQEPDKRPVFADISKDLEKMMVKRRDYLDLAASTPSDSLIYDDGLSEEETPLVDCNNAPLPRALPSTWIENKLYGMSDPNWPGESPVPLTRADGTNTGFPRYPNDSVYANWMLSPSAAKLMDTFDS

T1 sequence (P04626 679-1255): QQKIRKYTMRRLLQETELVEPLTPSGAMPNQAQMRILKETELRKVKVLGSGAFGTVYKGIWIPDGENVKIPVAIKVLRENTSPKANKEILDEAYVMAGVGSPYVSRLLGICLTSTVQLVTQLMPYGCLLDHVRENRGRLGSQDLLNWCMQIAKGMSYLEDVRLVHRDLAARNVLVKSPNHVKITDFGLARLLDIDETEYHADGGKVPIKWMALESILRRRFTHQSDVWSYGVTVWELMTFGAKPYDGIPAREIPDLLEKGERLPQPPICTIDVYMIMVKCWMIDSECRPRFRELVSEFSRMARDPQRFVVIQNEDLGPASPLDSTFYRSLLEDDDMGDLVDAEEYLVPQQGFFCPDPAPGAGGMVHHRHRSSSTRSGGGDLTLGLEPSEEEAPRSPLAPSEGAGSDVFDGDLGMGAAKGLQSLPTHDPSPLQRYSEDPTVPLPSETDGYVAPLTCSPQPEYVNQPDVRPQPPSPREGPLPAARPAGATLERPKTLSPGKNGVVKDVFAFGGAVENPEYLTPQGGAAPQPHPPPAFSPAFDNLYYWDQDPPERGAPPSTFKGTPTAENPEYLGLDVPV
T4 sequence (O08775 786-1343): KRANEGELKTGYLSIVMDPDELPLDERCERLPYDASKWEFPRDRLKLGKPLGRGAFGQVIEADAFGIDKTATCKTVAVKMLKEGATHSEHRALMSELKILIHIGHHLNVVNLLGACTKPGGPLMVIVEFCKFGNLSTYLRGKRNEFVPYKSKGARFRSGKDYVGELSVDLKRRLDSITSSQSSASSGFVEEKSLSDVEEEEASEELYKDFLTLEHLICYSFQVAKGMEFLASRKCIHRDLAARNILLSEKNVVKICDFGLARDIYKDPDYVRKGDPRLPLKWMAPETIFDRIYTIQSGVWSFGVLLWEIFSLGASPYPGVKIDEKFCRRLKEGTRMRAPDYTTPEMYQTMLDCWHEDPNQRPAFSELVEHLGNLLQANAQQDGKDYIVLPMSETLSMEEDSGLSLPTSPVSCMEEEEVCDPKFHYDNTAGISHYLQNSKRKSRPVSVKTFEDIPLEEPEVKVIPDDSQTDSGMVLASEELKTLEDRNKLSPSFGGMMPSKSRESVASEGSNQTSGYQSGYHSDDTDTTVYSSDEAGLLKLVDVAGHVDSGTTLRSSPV
T5 sequence (P12931 whole entry): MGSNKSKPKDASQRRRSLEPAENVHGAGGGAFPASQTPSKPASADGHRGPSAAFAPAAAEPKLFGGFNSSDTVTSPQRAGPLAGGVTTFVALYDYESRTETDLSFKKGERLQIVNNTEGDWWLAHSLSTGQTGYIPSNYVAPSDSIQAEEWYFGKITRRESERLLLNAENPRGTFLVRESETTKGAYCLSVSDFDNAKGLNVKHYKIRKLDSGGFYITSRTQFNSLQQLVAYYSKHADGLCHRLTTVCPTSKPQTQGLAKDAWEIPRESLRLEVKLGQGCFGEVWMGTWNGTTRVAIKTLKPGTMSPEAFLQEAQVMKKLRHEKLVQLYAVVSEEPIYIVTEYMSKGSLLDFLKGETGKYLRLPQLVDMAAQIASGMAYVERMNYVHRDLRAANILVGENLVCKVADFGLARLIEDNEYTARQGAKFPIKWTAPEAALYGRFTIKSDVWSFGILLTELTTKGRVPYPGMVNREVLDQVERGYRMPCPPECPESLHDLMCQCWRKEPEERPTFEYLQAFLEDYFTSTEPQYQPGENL
T2 sequence (P06493 whole entry): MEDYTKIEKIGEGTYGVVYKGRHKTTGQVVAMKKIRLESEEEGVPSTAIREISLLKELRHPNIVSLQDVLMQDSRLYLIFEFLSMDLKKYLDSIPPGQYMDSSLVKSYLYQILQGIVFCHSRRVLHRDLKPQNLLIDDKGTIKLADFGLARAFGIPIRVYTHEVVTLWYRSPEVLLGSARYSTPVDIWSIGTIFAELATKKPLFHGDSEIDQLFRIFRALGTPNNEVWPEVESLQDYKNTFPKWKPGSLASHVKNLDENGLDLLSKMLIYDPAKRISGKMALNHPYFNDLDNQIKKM
T2 sequence (P14635 whole entry partner): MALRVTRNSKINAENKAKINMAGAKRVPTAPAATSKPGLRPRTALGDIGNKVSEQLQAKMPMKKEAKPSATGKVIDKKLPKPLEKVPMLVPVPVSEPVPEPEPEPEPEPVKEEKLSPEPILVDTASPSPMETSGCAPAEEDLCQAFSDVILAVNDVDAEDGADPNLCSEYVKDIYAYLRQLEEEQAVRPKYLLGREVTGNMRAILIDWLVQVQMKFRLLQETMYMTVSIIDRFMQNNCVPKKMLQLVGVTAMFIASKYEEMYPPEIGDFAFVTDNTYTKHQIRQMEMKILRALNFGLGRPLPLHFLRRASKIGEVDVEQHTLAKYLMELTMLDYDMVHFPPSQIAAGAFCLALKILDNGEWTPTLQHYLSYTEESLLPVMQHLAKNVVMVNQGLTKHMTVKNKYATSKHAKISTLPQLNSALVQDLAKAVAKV
T6 sequence (P07948 whole entry): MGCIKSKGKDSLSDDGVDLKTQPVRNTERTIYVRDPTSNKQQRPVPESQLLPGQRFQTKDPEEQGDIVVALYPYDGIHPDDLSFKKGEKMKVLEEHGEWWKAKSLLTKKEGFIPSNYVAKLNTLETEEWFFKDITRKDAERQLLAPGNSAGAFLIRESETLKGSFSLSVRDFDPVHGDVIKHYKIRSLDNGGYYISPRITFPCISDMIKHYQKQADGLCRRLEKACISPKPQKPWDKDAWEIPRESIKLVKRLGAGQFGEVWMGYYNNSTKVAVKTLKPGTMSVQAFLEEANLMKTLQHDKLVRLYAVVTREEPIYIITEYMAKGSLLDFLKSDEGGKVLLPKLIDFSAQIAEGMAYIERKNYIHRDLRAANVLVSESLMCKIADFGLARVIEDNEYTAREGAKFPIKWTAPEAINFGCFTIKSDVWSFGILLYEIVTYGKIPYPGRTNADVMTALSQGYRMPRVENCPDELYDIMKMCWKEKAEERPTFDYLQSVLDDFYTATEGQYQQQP

| SMILES | IC50 [1] | IC50 [2] | Tumor volume ([3]; Day 1) | IC50 [4] | IC50 [5] | IC50 [6] | IC50 [7] | IC50 [8] | Tumor volume ([3]; Day 4) | Tumor volume ([3]; Day 8) | Tumor volume ([3]; Day 11) | Tumor volume ([3]; Day 14) | IC50 [9] | IC50 [10] | IC50 [11] |
| --- | --- | --- | --- | --- | --- | --- | --- | --- | --- | --- | --- | --- | --- | --- | --- |
| CCNCc1cncc(-c2cnc3[nH]nc(-c4nc5cc(F)c(F)cc5[nH]4)c3c2)c1 [Cpd 107, {5-[3-(5,6-difluoro-1H-benzoimidazol-2-yl)-1H-pyrazolo[3,4-b]pyridin-5-yl]-pyridin-3-ylmethyl}-ethyl-amine] | 3600 nM | 138 nM | 95.4 mm^3 | 1.1 nM | 46.1 nM | > 1000 nM | 94.7 nM | ~100 nM |  |  |  |  |  |  |  |
| CCNCc1cncc(-c2cnc3[nH]nc(-c4nc5ccc(F)cc5[nH]4)c3c2)c1 [Cpd 106, ethyl-{5-[3-(6-fluoro-1H-benzoimidazol-2-yl)-1H-pyrazolo[3,4-b]pyridin-5-yl]-pyridin-3-ylmethyl}-amine] | 5120 nM | 58.6 nM | 95.4 mm^3 | 0.7 nM | 51.2 nM | 803 nM | 93.7 nM | 154 nM | 94.7 mm^3 | 318.6 mm^3 | 558.3 mm^3 | 896.8 mm^3 |  |  |  |
| CCCNCc1cncc(-c2cnc3[nH]nc(-c4nc5c(COC)cccc5[nH]4)c3c2)c1 [Cpd 78, {5-[3-(4-methoxymethyl-1H-benzoimidazol-2-yl)-1H-pyrazolo[3,4-b]pyridin-5-yl]-pyridin-3-ylmethyl}-propyl-amine] |  |  | 95.4 mm^3 | 7.4 nM |  | 3990 nM |  |  | 113.6 mm^3 | 329.3 mm^3 | 558 mm^3 | 856.9 mm^3 |  |  |  |
| CCNCc1cncc(-c2cnc3[nH]nc(-c4nc5cc(N6CCN(C)CC6)ccc5[nH]4)c3c2)c1 [Cpd 82, ethyl-(5-{3-[5-(4-methyl-piperazin-1-yl)-1H-benzoimidazol-2-yl]-1H-pyrazolo[3,4-b]pyridin-5-yl}-pyridin-3-ylmethyl)-amine] | 1070 nM | 474 nM | 97.7 mm^3 | 3.05 nM | 627 nM | 283 nM | 543 nM | 25 nM | 222 mm^3 | 455.5 mm^3 | 742.4 mm^3 | 1323.6 mm^3 | 712 nM | 415 nM |  |
| COCc1cccc2[nH]c(-c3n[nH]c4ncc(-c5cncc(C=NO)c5)cc34)nc12 [Cpd 72, 5-[3-(4-methoxymethyl-1H-benzoimidazol-2-yl)-1H-pyrazolo[3,4-b]pyridin-5-yl]-pyridine-3-carbaldehyde oxime] | > 100000 nM | 640 nM |  | 23.6 nM | 10.2 nM | > 10000 nM | 29.2 nM | > 100000 nM |  |  |  |  | 375 nM | 1050 nM | > 100000 nM |
| CNCc1cncc(-c2cnc3[nH]nc(-c4nc5c(COC)cccc5[nH]4)c3c2)c1 [Cpd 56, {5-[3-(4-methoxymethyl-1H-benzoimidazol-2-yl)-1H-pyrazolo[3,4-b]pyridin-5-yl]-pyridin-3-ylmethyl}-methyl-amine] | > 100000 nM | 459 nM |  | 2.54 nM | 268 nM | > 1000 nM | 313 nM | 639 nM |  |  |  |  | 886 nM | 1080 nM | ~1000 nM |
| Cc1ccccc1NC(=O)c1cccc2[nH]c(-c3n[nH]c4ncc(-c5cncc6ccccc56)cc34)nc12 [Cpd 46, 2-(5-isoquinolin-4-yl-1H-pyrazolo[3,4-b]pyridin-3-yl)-1H-benzoimidazole-4-carboxylic acid o-tolylamide] | ~100000 nM | 159 nM |  | 80.6 nM | 194 nM | 230 nM | 225 nM | 702 nM |  |  |  |  | 1.4 nM | 6.31 nM | ~10000 nM |
| NC1CCC(NC(=O)c2cccc3[nH]c(-c4n[nH]c5ncc(-c6cncc7ccccc67)cc45)nc23)CC1 (stereo not drawn) [Cpd 45, 2-(5-isoquinolin-4-yl-1H-pyrazolo[3,4-b]pyridin-3-yl)-1H-benzoimidazole-4-carboxylic acid (4-amino-cyclohexyl)-amide] | 31000 nM | 7520 nM |  | 34.9 nM | 28500 nM | 40 nM | > 10000 nM | > 100 nM |  |  |  |  | 0.653 nM | 1.33 nM | > 100000 nM |
